The record followed here is patent US7915291B2, “Hepatitis C virus inhibitors” (Bristol-Myers Squibb Company, priority 2002, dated 2011).

The target in experiment [1] is HCV NS3/4A protease complex, BMS strain (UniProt P27958, C1454S/C1711G, species not given/STRAIN_BMS). The experiment in a line: Recombinant HCV NS3/4A protease complex FRET peptide assay (BMS strain). The class given is biochemical, HCV genotype 1a. To be noted: NS3/4A BMS strain; read-out: IC50 range. From the text:
Recombinant HCV NS3/4A Protease Complex FRET Peptide Assay
The purpose of this in vitro assay was to measure the inhibition of HCV NS3 protease complexes, derived from the BMS, H77C or J416S strains, as described below, by compounds of the present invention.
Serum from an HCV-infected patient was obtained from Dr. T. Wright, San Francisco Hospital. An engineered full-length cDNA (compliment deoxyribonucleic acid) template of the HCV genome (BMS strain) was constructed from DNA fragments obtained by reverse transcription-PCR(RT-PCR) of serum RNA (ribonucleic acid) and using primers selected on the basis of homology between other genotype 1a strains.
The BMS, H77C and J4L6S strains were used for production of recombinant NS3/4A protease complexes. […] Briefly, a three-lysine solubilizing tail was added at the 3′-end of the NS4A coding region. […] Briefly, NS3/4A expression was induced with 0.5 mM Isopropyl β-D-1-thiogalactopyranoside (IPTG) for 22 hr at 20° C. […] The crude protein extract was loaded on a Nickel—Nitrilotriacetic acid (Ni-NTA) column pre-equilibrated with buffer B (25 mM HEPES, pH8.0, 20% glycerol, 500 mM NaCl, 0.5% Triton-X100, 15 mM imidazole, 5 mM βME). The sample was loaded at a flow rate of 1 mL/min. The column was washed with 15 column volumes of buffer C (same as buffer B except with 0.2% Triton-X100). The protein was eluted with 5 column volumes of buffer D (same as buffer C except with 200 mM Imidazole).
NS3/4A protease complex-containing fractions were pooled and loaded on a desalting column Superdex-S200 pre-equilibrated with buffer D (25 mM HEPES, pH7.5, 20% glycerol, 300 mM NaCl, 0.2% Triton-X100, 10 mM βME). Sample was loaded at a flow rate of 1 mL/min. NS3/4A protease complex-containing fractions were pooled and concentrated to approximately 0.5 mg/ml.
The enzyme was stored at −80° C., thawed on ice and diluted prior to use in assay buffer. […] The sequence of this peptide is loosely based on the NS4A/NS4B natural cleavage site except there is an ester linkage rather than an amide bond at the cleavage site. The peptide substrate was incubated with one of the three recombinant NS3/4A complexes, in the absence or presence of a compound of the present invention, and the formation of fluorescent reaction product was followed in real time using a Cytofluor Series 4000.
The reagents were as follow: HEPES and Glycerol (Ultrapure) were obtained from GIBCO-BRL. Dimethyl Sulfoxide (DMSO) was obtained from Sigma. β-Mercaptoethanol was obtained from Bio Rad.
Substrate: 2 μM final concentration (from a 2 mM stock solution in DMSO stored at −20° C.). HCV NS3/4A type 1a (1b), 2-3 nM final concentration (from a 5 μM stock solution in 25 mM HEPES, pH7.5, 20% glycerol, 300 mM NaCl, 0.2% Triton-X100, 10 mM βME).
The assay was performed in a 96-well polystyrene black plate from Falcon. Each well contained 25 μl NS3/4A protease complex in assay buffer, 50 μof a compound of the present invention in 10% DMSO/assay buffer and 25 μl substrate in assay buffer. A control (no compound) was also prepared on the same assay plate. The enzyme complex was mixed with compound or control solution for 1 min before initiating the enzymatic reaction by the addition of substrate. The assay plate was read immediately using the Cytofluor Series 4000 (Perspective Biosystems). The instrument was set to read an […] at 25° C. Reactions were generally followed for approximately 15 minutes.
The percent inhibition was calculated with the following equation: 100−[(δFinh/δFcon)×100] where δF is the change in fluorescence over the linear range of the curve.

The test system of experiment [2] is HCV replicon in Huh7 cells. The experiment in a line: HCV replicon cell-based assay. More on the design: species or system HCV strain 1B. The following applies: Hepatitis C virus, Huh-7; HCV replicon, Huh7 cells; read-out: EC50 range. An excerpt:
HCV Replicon Cell-based Assay
This system enabled us to evaluate the effects of our HCV Protease compounds on HCV RNA replication. Briefly, using the HCV strain 1B sequence described in the Lohmann paper (Assession number:AJ238799), an HCV cDNA was generated encoding the 5′ internal ribosome entry site (IRES), the neomycin resistance gene, the EMCV (encephalomyocarditis virus)-IRES and the HCV nonstructural proteins, NS3-NS5B, and 3′ non-translated region (NTR). In vitro transcripts of the cDNA were transfected into the human hepatoma cell line, Huh7. […] Resulting cell lines were characterized for positive and negative strand RNA production and protein production over time.
Huh7 cells, constitutively expressing the HCV replicon, were grown in Dulbecco's Modified Eagle Media (DMEM) containing 10% Fetal calf serum (FCS) and 1 mg/ml G418 (Gibco-BRL). Cells were seeded the night before (1.5×10^4 cells/well) in 96-well tissue-culture sterile plates. Compound and no compound controls were prepared in DMEM containing 4% FCS, 1:100 Penicillin/Streptomysin, 1:100 L-glutamine and 5% DMSO in the dilution plate (0.5% DMSO final concentration in the assay). Compound/DMSO mixes were added to the cells and incubated for 4 days at 37° C. After 4 days, plates were rinsed thoroughly with Phosphate-Buffered Saline (PBS) (3 times 150 μl). The cells were lysed with 25 μl of a lysis assay reagent containing the FRET peptide (RET S1, as described for the in vitro enzyme assay). The lysis assay reagent was made from 5× cell Luciferase cell culture lysis reagent(Promega #E153A) diluted to 1× with distilled water, NaCl added to 150 mM final, the FRET peptide diluted to 10 μM final from a 2 mM stock in 100% DMSO. The plate was then placed into the Cytofluor 4000 instrument which had been set to 340 nm excitation/490 emission, automatic mode for 21 cycles and the plate read in a kinetic mode. EC50 determinations were carried out as described for the IC50 determinations.
Cells were lyzed using the Rneasy kit (Qiagen). […] All primers were designed with ABI Prism 7700 software and obtained from Biosearch Technologies, Novato, Calif. Samples containing known concentrations of HCV RNA transcript were run as standards. Using the following cycling protocol (50° C., 30 min; 95° C., 5 min; 40 cycles of 95° C., 15 sec, 60° C., 1 min), HCV RNA expression was quantitated as described in the Perkin Elmer manual using the ABI Prism 7700 Sequence Detector.
On the technique in general: Replicon systems follow genome replication, usually without infectious particles.

Molecules are shown by their SMILES. Some results are limits rather than exact numbers.

Take `C=C[C@@H]1C[C@]1(NC(=O)[C@@H]1C[C@@H](Oc2nccc3cc(OC)ccc23)CN1C(=O)[C@@H](NC(=O)OC(C)(C)C)[C@H](C)CC)C(=O)NS(=O)(=O)C1CC1` [Compound 13]: the IC50 in experiment [1] is under 100 nM. Besides, the EC50 in experiment [2] was under 100 nM.

As to `CC[C@@H]1C[C@]1(NC(=O)[C@@H]1C[C@@H](Oc2nccc3cc(OC)ccc23)CN1C(=O)[C@@H](NC(=O)OC(C)(C)C)C(C)(C)C)C(=O)NS(=O)(=O)C1CC1` [Compound 14], the IC50 in experiment [1] was under 100 nM. Moreover, in experiment [2], the EC50 was under 100 nM.

In the case of `CC[C@@H]1C[C@]1(NC(=O)[C@@H]1C[C@@H](Oc2nccc3cc(OC)ccc23)CN1C(=O)[C@@H](NC(=O)OC(C)(C)C)C(C)(C)C)C(=O)NS(=O)(=O)C(C)C` [Compound 15], the IC50 in experiment [1] fell in the range of 100 to 1000 nM. Moreover, the EC50 in experiment [2] was 1000 to 10000 nM.

As to `C=C[C@@H]1C[C@]1(NC(=O)[C@@H]1C[C@@H](Oc2nccc3cc(OC)ccc23)CN1C(=O)[C@@H](NC(=O)OC)C(C)(C)C)C(=O)NS(=O)(=O)C1CC1` [Compound 16], the IC50 in experiment [1] was under 100 nM. Besides, the EC50 in experiment [2] lay within 100 to 1000 nM.

As to `C=C[C@@H]1C[C@]1(NC(=O)[C@@H]1C[C@@H](Oc2nccc3cc(OC)ccc23)CN1C(=O)[C@@H](NC(=O)OC(C)C)C(C)(C)C)C(=O)NS(=O)(=O)C1CC1` [Compound 17], in experiment [1], the concentration for half-maximal inhibition (IC50) is under 100 nM. The EC50 in experiment [2] is under 100 nM.

For `C=C[C@@H]1C[C@]1(NC(=O)[C@@H]1C[C@@H](Oc2nccc3cc(OC)ccc23)CN1C(=O)[C@@H](NC(=O)OCC(C)(C)C)C(C)(C)C)C(=O)NS(=O)(=O)C1CC1` [Compound 18], the half-maximal inhibitory concentration (IC50) in experiment [1] is under 100 nM. In addition, the EC50 in experiment [2] was under 100 nM.

Regarding `C=C[C@@H]1C[C@]1(NC(=O)[C@@H]1C[C@@H](Oc2nccc3cc(OC)ccc23)CN1C(=O)[C@@H](NC(=O)O[C@H]1CCOC1)C(C)(C)C)C(=O)NS(=O)(=O)C1CC1` [Compound 19], in experiment [1], the IC50 is under 100 nM. Further, the EC50 in experiment [2] was under 100 nM.

As for `C=C[C@@H]1C[C@]1(NC(=O)[C@@H]1C[C@@H](Oc2nccc3cc(Cl)ccc23)CN1C(=O)[C@@H](NC(=O)OC(C)(C)C)C(C)(C)C)C(=O)NS(=O)(=O)C1CC1` [Compound 20], the IC50 in experiment [1] was under 100 nM. Further, in experiment [2], the EC50 fell in the range of 100 to 1000 nM.

In the case of `C=C[C@@H]1C[C@]1(NC(=O)[C@@H]1C[C@@H](Oc2nccc3cc(-n4cccn4)ccc23)CN1C(=O)[C@@H](NC(=O)OC(C)(C)C)C(C)(C)C)C(=O)NS(=O)(=O)C1CC1` [Compound 21], the IC50 in experiment [1] was under 100 nM. Besides, the EC50 in experiment [2] was under 100 nM.

On to `C=C[C@@H]1C[C@]1(NC(=O)[C@@H]1C[C@@H](Oc2nccc3cc(Br)ccc23)CN1C(=O)[C@@H](NC(=O)OC(C)(C)C)C(C)(C)C)C(=O)NS(=O)(=O)C1CC1` [Compound 22], for which the IC50 in experiment [1] was under 100 nM. Moreover, the EC50 in experiment [2] was 100 to 1000 nM.

As to `C=C[C@@H]1C[C@]1(NC(=O)[C@@H]1C[C@@H](Oc2nccc3ccccc23)CN1C(=O)[C@@H](NC(=O)OC(C)(C)C)C(C)(C)C)C(=O)NS(=O)(=O)C1CC1` [Compound 23], in experiment [1], the IC50 was under 100 nM. Moreover, in experiment [2], the EC50 was under 100 nM.

In the case of `C=C[C@@H]1C[C@]1(NC(=O)[C@@H]1C[C@@H](Oc2nc(Cl)cc3ccccc23)CN1C(=O)[C@@H](NC(=O)OC(C)(C)C)C(C)(C)C)C(=O)NS(=O)(=O)C1CC1` [Compound 24], the IC50 in experiment [1] was under 100 nM. The EC50 in experiment [2] is under 100 nM.

Turning to `C=C[C@@H]1C[C@]1(NC(=O)[C@@H]1C[C@@H](Oc2nc(-c3ccccc3)cc3ccccc23)CN1C(=O)[C@@H](NC(=O)OC(C)(C)C)C(C)(C)C)C(=O)NS(=O)(=O)C1CC1` [Compound 25], the IC50 in experiment [1] is under 100 nM. Further, the EC50 in experiment [2] was under 100 nM.

As to `C=C[C@@H]1C[C@]1(NC(=O)[C@@H]1C[C@@H](Oc2nc(-c3ccc(OC)cc3)cc3ccccc23)CN1C(=O)[C@@H](NC(=O)OC(C)(C)C)C(C)(C)C)C(=O)NS(=O)(=O)C1CC1` [Compound 26], the IC50 in experiment [1] is under 100 nM. In experiment [2], the EC50 is under 100 nM.

With `C=C[C@@H]1C[C@]1(NC(=O)[C@@H]1C[C@@H](Oc2nc(-c3ccncc3)cc3ccccc23)CN1C(=O)[C@@H](NC(=O)OC(C)(C)C)C(C)(C)C)C(=O)NS(=O)(=O)C1CC1` [Compound 27], in experiment [1], the IC50 was under 100 nM. Besides, the EC50 in experiment [2] was under 100 nM.

For `C=C[C@@H]1C[C@]1(NC(=O)[C@@H]1C[C@@H](Oc2nc(-c3ccc(N(C)C)cc3)cc3ccccc23)CN1C(=O)[C@@H](NC(=O)OC(C)(C)C)C(C)(C)C)C(=O)NS(=O)(=O)C1CC1` [Compound 28], the IC50 in experiment [1] was under 100 nM. Moreover, in experiment [2], the EC50 was under 100 nM.

Turning to `C=C[C@@H]1C[C@]1(NC(=O)[C@@H]1C[C@@H](Oc2nc(-c3ccc(C#N)cc3)cc3ccccc23)CN1C(=O)[C@@H](NC(=O)OC(C)(C)C)C(C)(C)C)C(=O)NS(=O)(=O)C1CC1` [Compound 29], in experiment [1], the IC50 was under 100 nM. In addition, the EC50 in experiment [2] was under 100 nM.

In the case of `C=C[C@@H]1C[C@]1(NC(=O)[C@@H]1C[C@@H](Oc2nc(-c3ccoc3)cc3ccccc23)CN1C(=O)[C@@H](NC(=O)OC(C)(C)C)C(C)(C)C)C(=O)NS(=O)(=O)C1CC1` [Compound 30], the IC50 in experiment [1] is under 100 nM. In addition, the EC50 in experiment [2] is under 100 nM.

For the compound `C=C[C@@H]1C[C@]1(NC(=O)[C@@H]1C[C@@H](Oc2nc(-c3cnccn3)cc3ccccc23)CN1C(=O)[C@@H](NC(=O)OC(C)(C)C)C(C)(C)C)C(=O)NS(=O)(=O)C1CC1` [Compound 31], the IC50 in experiment [1] is under 100 nM. In addition, in experiment [2], the concentration giving a half-maximal response (EC50) was under 100 nM.

Regarding `C=C[C@@H]1C[C@]1(NC(=O)[C@@H]1C[C@@H](Oc2nc(C#N)cc3ccccc23)CN1C(=O)[C@@H](NC(=O)OC(C)(C)C)C(C)(C)C)C(=O)NS(=O)(=O)C1CC1` [Compound 32], the IC50 in experiment [1] is under 100 nM. In addition, in experiment [2], the EC50 was under 100 nM.

One may read the IC50 as the midpoint of a concentration-inhibition curve. For orientation: EC50 means the concentration needed to bring the measured effect to its halfway point.
